Reference: patent US20250059185A1 (Hoffmann-La Roche Inc., priority 2021, published 2025)

molecular target: MAGL (Homo sapiens (Human), UniProt Q99685); assay: 2-AG assay (MAGL inhibitory activity, hydrolysis of 2-arachidonoylglycerol followed by mass spectrometry); type: biochemical; conditions: 50 pM MAGL protein, 15 min pre-incubation, 30 min incubation at RT
Summary of the method: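 Human MAGL (50 pM final) preincubated 15 min at RT with compound (3-fold dilutions, 12.5 μM to 0.8 pM final) in 50 mM TRIS, 1 mM EDTA, 0.01% Tween-20, 2.5% DMSO. Reaction with […] 2-AG ran 30 min at RT, then was quenched with acetonitrile containing d8-arachidonic acid. Arachidonic acid measured by SPE–triple-quad MS (negative ESI), activity from the arachidonic/d8-arachidonic acid intensity ratio.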

Chain of MAGL (Q99685 whole entry, species assumed): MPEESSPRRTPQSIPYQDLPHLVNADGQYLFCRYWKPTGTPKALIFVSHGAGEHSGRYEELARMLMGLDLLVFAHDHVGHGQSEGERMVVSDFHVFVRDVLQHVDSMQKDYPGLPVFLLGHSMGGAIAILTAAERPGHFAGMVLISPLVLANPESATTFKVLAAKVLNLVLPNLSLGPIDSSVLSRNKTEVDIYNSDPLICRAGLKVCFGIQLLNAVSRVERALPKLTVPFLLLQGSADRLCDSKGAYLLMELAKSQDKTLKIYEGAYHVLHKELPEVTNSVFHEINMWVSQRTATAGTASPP

Compound | IC50 [nM]
C[C@H]1c2nn(C)c(-c3cc(F)cc(F)c3)c2CCN1C(=O)c1cc(F)cc(OCC2CNC(=O)O2)c1Cl (single isomer, unassigned) [Example 49, 5-[[2-Chloro-3-[3-(3,5-difluorophenyl)-2,7-dimethyl-5,7-dihydro-4H-pyrazolo[3,4-c]pyridine-6-carbonyl]-5-fluoro-phenoxy]methyl]oxazolidin-2-one] | 1
C[C@H]1c2nn(C)c(-c3cc(Cl)cc(C4(S(C)(=O)=O)CC4)c3)c2CCN1C(=O)c1cc(F)cc(-c2ccc(=O)[nH]c2)c1Cl [Example 73, 5-[2-chloro-3-[(7S)-3-[3-chloro-5-(1-methylsulfonylcyclopropyl)phenyl]-2,7-dimethyl-5,7-dihydro-4H-pyrazolo[3,4-c]pyridine-6-carbonyl]-5-fluoro-phenyl]-1H-pyridin-2-one] | 145
C[C@H]1c2nn(C)c(-c3cncc(C(F)(F)F)n3)c2CCN1C(=O)c1cc(F)cc(N2CC3(C2)CS(=O)(=O)C3)c1Cl [Example 65, [2-chloro-3-(2,2-dioxo-2λ^6-thia-6-azaspiro[3.3]heptan-6-yl)-5-fluoro-phenyl]-[(7S)-2,7-dimethyl-3-[6-(trifluoromethyl)pyrazin-2-yl]-5,7-dihydro-4H-pyrazolo[3,4-c]pyridin-6-yl]methanone] | 2830
C=S(N)(=O)c1cc(Cl)cc(-c2c3c(nn2C)C(C)N(C(=O)c2cc(F)cc(-c4ccc(=O)[nH]c4)c2Cl)CC3)c1 (centres unmarked) [Example 56] | 12
COc1cccc(C(=O)N2CCc3c(nn(C)c3-c3cc(Cl)cc(CC(N)=O)c3)[C@@H]2C)c1Cl [Example 14, 2-[3-Chloro-5-[(7S)-6-(2-chloro-3-methoxy-benzoyl)-2,7-dimethyl-5,7-dihydro-4H-pyrazolo[3,4-c]pyridin-3-yl]phenyl]acetamide] | 41
C[C@H]1c2nn(C)c(-c3cc(F)cc(F)c3)c2CCN1C(=O)c1cc(Cl)cc(OCC2CNC(=O)O2)c1Cl (stereo partly drawn) [Example 107, 5-[[2,5-dichloro-3-[(7S)-3-(3,5-difluorophenyl)-2,7-dimethyl-5,7-dihydro-4H-pyrazolo[3,4-c]pyridine-6-carbonyl]phenoxy]methyl]oxazolidin-2-one] | 0.61
C[C@H]1c2nn(C)c(-c3cc(F)cc(F)c3)c2CCN1C(=O)c1ncn(-c2ccnc(O)c2)n1 [Example 112, [(7S)-3-(3,5-difluorophenyl)-2,7-dimethyl-5,7-dihydro-4H-pyrazolo[3,4-c]pyridin-6-yl]-[1-(2-hydroxy-4-pyridyl)-1,2,4-triazol-3-yl]methanone] | 1660
C[C@H]1c2nn(C)c(-c3cc(Cl)cc(S(N)(=O)=O)c3)c2CCN1C(=O)c1ncn(-c2ccc[nH]c2=O)n1 [Example 62, 3-Chloro-5-[(7S)-2,7-dimethyl-6-[1-(2-oxo-1H-pyridin-3 yl)-1,2,4-triazole-3-carbonyl]-5,7-dihydro-4H-pyrazolo[3,4-c]pyridin-3-yl]benzenesulfonamide] | 326
CC1c2nn(C)c(-c3cc(F)cc(F)c3)c2CCN1C(=O)c1cc(F)cc(OCC2CNC(=O)C2)c1Cl (single isomer, unassigned) [Example 39, 4-[[2-Chloro-3-[3-(3,5-difluorophenyl)-2,7-dimethyl-5,7-dihydro-4H-pyrazolo[3,4-c]pyridine-6-carbonyl]-5-fluoro-phenoxy]methyl]pyrrolidin-2-one] | 169

The remaining molecules from weak to strong by IC50, led by results:

IC50 [nM] | Compound
1460 | C[C@H]1c2nn(C)c(-c3cc(F)cc(F)c3)c2CCN1C(=O)c1ncn(-c2ccc[nH]c2=O)c1Cl [Example 77, 3-[5-chloro-4-[(7S)-3-(3,5-difluorophenyl)-2,7-dimethyl-5,7-dihydro-4H-pyrazolo[3,4-c]pyridine-6-carbonyl]imidazol-1-yl]-1H-pyridin-2-one]
892 | Cc1c(C(=O)N2CCc3c(nn(C)c3-c3cc(F)cc(F)c3)C2C)cccc1N1CCNC1=O (centres unmarked) [Example 25, 1-[3-[3-(3,5-Difluorophenyl)-2,7-dimethyl-5,7-dihydro-4H-pyrazolo[3,4-c]pyridine-6-carbonyl]-2-methyl-phenyl]imidazolidin-2-one]
440 | C[C@@H]1c2nn(C)c(-c3cc(F)cc(F)c3)c2CCN1C(=O)c1cc(F)cc(CCc2cn[nH]c2)c1Cl [Example 103, [2-chloro-5-fluoro-3-[2-(1H-pyrazol-4-yl)ethyl]phenyl]-[(7R)-3-(3,5-difluorophenyl)-2,7-dimethyl-5,7-dihydro-4H-pyrazolo[3,4-c]pyridin-6-yl]methanone]
88 | CC1c2nn(C)c(-c3cc(F)cc(F)c3)c2CCN1C(=O)c1cc(F)cc(OCC2(C(F)(F)F)CC2)c1Cl (centres unmarked) [Example 27, [2-Chloro-5-fluoro-3-[[1-(trifluoromethyl)cyclopropyl]methoxy]phenyl]-[3-(3,5-difluorophenyl)-2,7-dimethyl-5,7-dihydro-4H-pyrazolo[3,4-c]pyridin-6-yl]methanone]
63 | CNS(=O)(=O)Cc1cc(Cl)cc(-c2c3c(nn2C)[C@H](C)N(C(=O)c2cccc(OC)c2Cl)CC3)c1 [Example 3, 1-[3-Chloro-5-[(7S)-6-(2-chloro-3-methoxy-benzoyl)-2,7-dimethyl-5,7-dihydro-4H-pyrazolo[3,4-c]pyridin-3-yl]phenyl]-N-methyl-methanesulfonamide]
31.9 | C[C@H]1c2nn(C)c(-c3cc(F)cc(F)c3)c2CCN1C(=O)c1ncn(-c2cc(Cl)cnc2O)n1 [Example 100, [1-(5-chloro-2-hydroxy-3-pyridyl)-1,2,4-triazol-3-yl]-[(7S)-3-(3,5-difluorophenyl)-2,7-dimethyl-5,7-dihydro-4H-pyrazolo[3,4-c]pyridin-6-yl]methanone]
27 | COc1cccc(C(=O)N2CCc3c(nn(C)c3-c3cc(Cl)cc(S(N)(=O)=O)c3)[C@@H]2C)c1Cl [Example 4, 3-Chloro-5-[(7S)-6-(2-chloro-3-methoxy-benzoyl)-2,7-dimethyl-5,7-dihydro-4H-pyrazolo[3,4-c]pyridin-3-yl]benzenesulfonamide]
3 | C[C@H]1c2nn(C)c(-c3cc(F)cc(F)c3)c2CCN1C(=O)c1cc(F)cc(-c2cc[nH]c(=O)c2)c1Cl [Example 31, 4-[2-Chloro-3-[(7S)-3-(3,5-difluorophenyl)-2,7-dimethyl-5,7-dihydro-4H-pyrazolo[3,4-c]pyridine-6-carbonyl]-5-fluoro-phenyl]-1H-pyridin-2-one]
3 | COCCOc1cc(Cl)cc(-c2c3c(nn2C)[C@H](C)N(C(=O)c2cccc(OC)c2Cl)CC3)c1 [Example 69, [(7S)-3-[3-chloro-5-(2-methoxyethoxy)phenyl]-2,7-dimethyl-5,7-dihydro-4H-pyrazolo[3,4-c]pyridin-6-yl]-(2-chloro-3-methoxy-phenyl)methanone]
2.48 | C[C@H]1c2nn(C)c(-c3cc(F)cc(F)c3)c2CCN1C(=O)c1cc(F)cc(OC[C@@H]2CNC(=O)N2)c1Cl (single isomer, unassigned) [Example 113]
1.53 | C[C@H]1c2nn(C)c(-c3cc(F)cc(F)c3)c2CCN1C(=O)c1cc(F)cc(CCc2cn[nH]c2)c1Cl [Example 102, [2-chloro-5-fluoro-3-[2-(JH-pyrazol-4-yl)ethyl]phenyl]-[(7S)-3-(3,5-difluorophenyl)-2,7-dimethyl-5,7-dihydro-4H-pyrazolo[3,4-c]pyridin-6-yl]methanone]
